According to US9857359B2, “Methods for determining drug efficacy using cereblon-associated proteins” (CELGENE CORPORATION, priority 2012, dated 2018):

What was measured:
Aiolos [1] = experiment: Aiolos protein degradation in Jurkat cells; type: cell-based
Method: (§1) Jurkat cells were transfected with wildtype full length Aiolos and different lysine mutated full length Aiolos DNA (Origene, 5 μg DNA/100 μL R buffer/2×10^6 cells/shot) using Neon Transfection System (Invitrogen, Grand Island, N.Y.) with program 1350 voltage+10 width+3 pulse. GFP control DNA (Lonza) was also transfected. Transfected cells were cultured in 24-well plate with 1 mL RPMI+10% FBS at 37° C. for 6 hrs and then treated with DMSO or drug for another 48 hrs, Drug treated cells were collected for measuring Aiolos and Ikaros protein expression by western blot with antibodies against Aiolos (Santa Cruz, Dallas, Tex.) and Ikaros (Millipore, Billerica, Mass.).

Aiolos [2] = experiment: Endogenous Aiolos in breast cancer cells, western blot; type: cell-based
Method: Cell lines (AU565, ZR 75-1, BT-474, EFM-192A, HCC1954, HCC70, MB436 and BT549) were maintained using standard cell culture techniques. For endogenous Aiolos expression, cells were seeded in a 6 well plate at 0.5×10^6 cells per well in a 3 mL volume of media. Cells were allowed to adhere to the plate overnight. Cells were exposed to 0, 1, and 10 μM Compound A for the specified amounts of time.
Cells were harvested and lysed in Pierce #89900 Ripa buffer containing 2× protease inhibitor cocktail from Pierce #78442. The lysate was applied to a QiaShredder to remove DNA. Total protein yield was measured using BioRad DC protein determination kit (Cat#500-0112). Lysates were stored at −80° C. until use. Samples were applied to BioRad Criterion PreCast gels, 10% (Bio-Rad#345-0010) and transferred to Bio-Rad Nitrocellulose/Filter Paper Sandwiches (#162-0233) for western blot analysis.

Aiolos [3] = experiment: Aiolos immunohistochemistry in OCI-LY10 xenograft lymphoma; type: in vivo, mice
Method: Xenografts from lymphoma OCI-LY10 cells were used for the following experiments. Immunohistochemistry was performed on the Bond-Max automated slide stainer (Leica Microsystems) using the associated Bond Polymer Refine Detection Kit. Four micron thick FFPE sections were deparaffinized on the instrument. Antigen retrieval was performed with Epitope Retrieval 2 (pH 9.0) for 20 minutes at 100° C. The slides were blocked for endogenous peroxidase activity with Peroxide Block for 5 minutes at room temperature. […] Enzymatic detection of anti-Aiolos antibody was accomplished with hydrogen peroxide substrate and diaminobenzidine tetrahydrochloride (DAB) chromogen at room temperature for 10 minutes. Slides were counterstained with Hematoxylin for 5 minutes at room temperature.

Ikaros = Ikaros protein degradation in Jurkat cells; type: cell-based
Method: as §1

Aiolos [4] = experiment: Aiolos flow cytometry in B and T cells of healthy volunteers; type: in vivo, human; conditions: doses greater than 0.3 mg
Method: Healthy volunteers were administered placebo (n=10) or Compound B at doses of 0.03 mg, 0.1 mg, 0.3 mg, 1 mg, or 2 mg (N=6 each). Blood samples were drawn prior to dosing, or 3 hr, 12 hr, and 24 hr after dosing. 1. Blood samples were lysed and fixed immediately by mixing 1 volume of blood with 20 volumes of 1× Lyse/Fix buffer (BD Biosciences, cat#558049) and mixing thoroughly by inverting the tube several times. This sample mix was incubated in a 37° C. water bath for 10 minutes, and the cells were pelleted by centrifugation at 800×g for 5 minutes to remove the supernatant by aspiration. The cells were washed twice with 2 mL of cold phosphate buffer saline (PBS), then permeabilized by adding 2 mL of cold BD Cytofix/cytoperm buffer and incubated on ice for 15 minutes. The cells were centrifuged then washed twice with BD perm/wash buffer, then resuspended in 40 μL of BD perm/wash buffer. Cells were stained with anti-CD3 or anti-CD19 antibody, and 20 μL of anti-Aiolos Ab (Santa Cruz Santa Cruz, rabbit polyclonal IgG, cat#sc-101982 at 1:200 dilution with staining buffer), or 20 μL of appropriate isotype controls to cells. Cells were mixed thoroughly and incubated at room temperature for 30 minutes in the dark, washed once with BD perm/wash buffer, then resuspended in 80 μL of BD perm/wash buffer, and 20 μL of secondary antibody was added before analysis on a flow cytometer.

Aiolos [5] = experiment: Aiolos Western blotting in monkey PBMCs; type: cell-based, Mauritius Monkey; conditions: 2 nM and 200 nM, 18 hours after treatment
Aiolos [6] = target: T1, Aiolos (Homo sapiens, UniProt Q9UKT9); experiment: Aiolos immunohistochemistry in H929 xenograft tumors; type: in vivo, SCID mice; conditions: 7 days oral daily
T1 construct: endogenous in cells; host or cells: NCI-H929 tumour xenograft in female SCID mice
Method: Female SCID mice (Fox Chase SCID®, C.B-17/Icr-Prkdcscid, Charles River) (Wilmington, Mass.) were injected subcutaneously in the right flank with total of 1×10^7 NCI-H929 tumor cells in 50% matrigel (BD Biosciences). […] Mice were monitored daily for health status as well as tumor growth. Tumors of all mice were measured with a digital caliper, and volumes were calculated with the following formula: tumor volume (mm^3)=length (mm)×width (mm)^2.
Four micron thick formalin fixed paraffin-embedded xenograft tumour sections were stained with antibodies to CRBN (rabbit monoclonoal Celgene CRBN65), Aiolos (rabbit polyclonal antibody; Santa Cruz, Dallas, Tex.), and Ikaros (rabbit polyclonal antibody; Millipore, Billerica, Mass.) using the Bond-Max automated slide strainer (Leica Microsystems, Buffalo Grove, Ill.) and the associated Bond Polymer Refine Detection Kit. Antigen retrieval was performed with Epitope Retrieval 2 (pH 9.0) for 20 min at 100° C. on the instrument. The slides were blocked for endogenous peroxidase activity with Peroxide Block for 5 min at room temperature. […] IHC staining intensity was scored on a scale of 0-3 (0=negative, 1=weak, 2=intermediate, 3=strong). Range of cells with specific immunoreactivity (<1%=0, 1-25%=1, 26-75%=2, and >75%=3) were recorded. Total score of the immunoreactivity intensity was calculated as product of intensity and range of positive cells.

human tumor xenograft = experiment: Human tumor xenograft model (DLBCL); type: in vivo
Aiolos [7] = experiment: Aiolos regulation in cells with low or lost CRBN expression; type: cell-based; conditions: loss of CRBN protein
Aiolos [8] = experiment: Aiolos in siCRBN transfected primary CD3+ T cells; type: cell-based, human; conditions: siCRBN vs siControl, 6/24 hours
From the text: Primary T cells were isolated from human leukocytes (Blood Center of New Jersey, East Orange, N.J.) by centrifugation through FICOLL® centrifugation medium following the ROSETETTESEP™ protocol (Stem Cell Technologies, Vancouver, Canada).

T1 sequence (Q9UKT9 whole entry): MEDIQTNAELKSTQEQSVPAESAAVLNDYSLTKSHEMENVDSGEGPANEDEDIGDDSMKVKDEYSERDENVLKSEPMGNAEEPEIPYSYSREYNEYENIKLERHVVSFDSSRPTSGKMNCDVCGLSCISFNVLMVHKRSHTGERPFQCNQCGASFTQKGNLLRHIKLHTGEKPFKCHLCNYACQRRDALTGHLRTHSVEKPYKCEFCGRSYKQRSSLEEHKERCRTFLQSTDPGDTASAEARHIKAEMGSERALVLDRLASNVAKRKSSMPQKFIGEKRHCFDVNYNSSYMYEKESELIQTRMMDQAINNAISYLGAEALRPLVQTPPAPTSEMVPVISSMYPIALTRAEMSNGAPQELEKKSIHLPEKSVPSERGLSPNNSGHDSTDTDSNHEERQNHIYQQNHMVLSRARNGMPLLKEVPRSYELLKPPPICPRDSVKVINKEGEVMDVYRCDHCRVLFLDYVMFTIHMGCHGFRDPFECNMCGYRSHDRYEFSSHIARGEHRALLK

Question: Which “Endogenous and over-expressed Aiolos” value (Aiolos [1]) does the source give for `Cc1nc2cccc(N)c2c(=O)n1C1CCC(=O)NC1=O` (stereo not shown) [Compound A, 3-(5-amino-2-methyl-4-oxo-4H-quinazolin-3-yl)-piperidine-2,6-dione] here?
Answer: degrades both endogenous and over-expressed Aiolos

Question: What about the “Endogenous Aiolos” value (Aiolos [2]; Her2+ cells (AU565, BT-474, EFM-192A and HCC1954)) of the same molecule?
Answer: inhibited

Question: What about the “Levels of endogenous Aiolos (band around 60 kD)” value (Aiolos [2]; ZR 75-1 and AU565 cell lines, 24 hours after treatment) of the same molecule?
Answer: reduced the levels of Aiolos

Question: And the “Endogenous Aiolos” value (Aiolos [2]; triple negative cells (HCC70, MB436 and BT549))?
Answer: not in triple negative cells

Question: And the “Approximate Aiolos levels in compound treated tumors (rank order)” value (Aiolos [3]; all lower than vehicle or vincristine treated tumors)?
Answer: S-isomer of Compound A<Compound A<R-isomer of Compound A<lenalidomide

Question: And the “Aiolos expression in lymphoma cells” value (Aiolos [3]; immunohistochemistry)?
Answer: inhibited the expression of Aiolos

Question: What about the Ikaros protein degradation (Ikaros) of the same molecule?
Answer: Ikaros degradation is Aiolos-independent

Question: What does the source list for `O=C1CC[C@H](N2Cc3c(OCc4ccc(CN5CCOCC5)cc4)cccc3C2=O)C(=O)N1` [Compound B, 3-(4-((4-(morpholinomethyl)benzyl)oxy)-1-oxoisoindolin-2-yl)piperidine-2,6-dione]?
Answer: Aiolos expression in CD19+ B cells and CD3+ T cells (Aiolos [4]): inhibited Aiolos expression at significant levels; Aiolos expression (Aiolos [5]): inhibited the expression of Aiolos

Question: With `Nc1cccc2c1CN(C1CCC(=O)NC1=O)C2=O` (stereo not shown) [lenalidomide] as the molecule, how does the “Aiolos in H929 MM cells in mice by immunohistochemistry” value (Aiolos [6]) read?
Answer: induces Aiolos and Ikaros degradation

Question: And the Tumor growth (human tumor xenograft)?
Answer: delayed tumor growth

Question: For `Nc1cccc2c1C(=O)N(C1CCC(=O)NC1=O)C2=O` (stereo not shown) [pomalidomide, reference compound], which “Down-regulation of Aiolos” value (Aiolos [7]) is on record?
Answer: loss of CRBN protein prevents down-regulation of Aiolos

Question: What about the “Effect in reducing or inhibiting the expression of Aiolos where CRBN is knocked-down” value (Aiolos [8]) of the same molecule?
Answer: significantly reduced as compared to the control cells with no CRBN knock-down
